From patent US11730937B2, “Separable microneedle arrays for sustained release of drug” (Georgia Tech Research Corporation, priority 2017, dated 2023)

Assay: in vivo
Conditions: female, Sprague Dawley, rat, iv, 0.006 mg
Experimental: Specifically, LNG pharmacokinetics were evaluated in adult female Sprague Dawley rats (200±12 g) by applying a LNG-loaded microneedle patch to each rat while under isoflurane anesthesia. The rats' dorsal skin was shaved before application of microneedle patches, taking care not to damage skin during shaving.
Plasma was then separated by centrifuging blood samples at 2000 g for 15 minutes at 4° C., and underwent subsequent analysis by enzyme-linked immunosorbent assay (ELISA, Thermo Fisher Scientific) following the manufacturer's instruction to determine LNG concentration.
Pharmacokinetic parameters were calculated using non-compartmental pharmacokinetic analysis. […] Bioavailability of LNG delivered from microneedles was calculated from the ratio of dose-normalized AUC values after microneedle patch administration and intravenous LNG injection.

- AUC(0-inf): 17.2 ± 0.3 ng·h/mL
- AUC(0-t): 17.2 ± 0.3 ng·h/mL
- half-life: 20.7 ± 0.6 h
Structure (SMILES): C#C[C@]1(O)CC[C@H]2[C@@H]3CCC4=CC(=O)CC[C@@H]4[C@H]3CC[C@@]21CC [LNG, levonorgestrel]
